From patent US5021421A, “2-(1-Piperazinyl)-4-phenylcycloalkanopyridine derivatives, processes for the production thereof, and pharmaceutical composition containing the same” (Dainippon Pharmaceutical Co., Ltd., priority 1989, dated 1991)
Where a name gives a salt, the structure may show the parent alone. Read-outs that look alike come from different tables or passages of the source.

What was measured:
[1] = test system: apomorphine-induced vomiting; assay: Antagonistic effect on apomorphine-induced vomiting; assay type: in vivo, dogs (Beagle); settings: Canis lupus familiaris, sc, apomorphine 0.3 mg/kg s.c. 2 h after compound, read-out: Inhibitory ratio (apomorphine-induced vomiting)
Protocol: A group of 3-4 dogs (Beagle, 8-15 kg) was used for examining effects on the test compounds on apomorphine-induced vomiting, a known test for evaluating neuroleptic drugs.
Each dog was given a subcutaneous injection of apomorphine hydrochloride (0.3 mg/kg) two hours after the treatment of the test compounds. Then, the frequency of oral vomiting was counted for one hour. The mean counts of the compound-treated group were compared with those of the corresponding control (non-dosed) group, and the percent inhibition was calculated.

[2] = test system: brain monoamine metabolites; assay: Increasing effect on concentration of brain monoamine metabolites; assay type: in vivo, mice (Std-ddy strain); settings: Mus musculus, 2 h, non-dosed=100
Protocol: A group of 5 male mice (Std-ddy strain, 25-30 g) was used for examining effect of the test compounds on concentration of brain monoamine metabolites.
Mice were killed by decapitation 2 hours after treatment with the test compounds. Brains were quickly taken out, homogenized in 1N formic acid-acetone solution, and centrifuged in a refrigerated ultracentrifuge. The supernatant was evaporated by blowing with N2 gas. Then, the residue was again resolved in 0.01 N acetic acid, and served for determining concentration of dopamine metabolites, 3,4-dihydroxyphenylacetic acid (DOPAC) and homovanillic acid (HVA), a norepinephrine metabolite, 3-methyl-4-hydroxyphenylethylene glycol (MOPEG), and a serotonin metabolite, 5-hydroxyindole-3-acetic acid (5-HIAA) concentrations by HPLC with electrochemical detection. The effect of the test compounds on concentration of each monoamine metabolite is shown as % of control (level of non-dosed animals=100) in Table 4.

[3] = read-out: 5-HIAA concentration, % of control
[4] = read-out: DOPAC concentration, % of control
[5] = read-out: HVA concentration, % of control
[6] = read-out: MOPEG concentration, % of control

Structure (SMILES): CCN1CCN(c2cc(-c3ccc(F)cc3)c3c(n2)CCCCCCC3)CC1 [Example 56]
- inhibition in vivo at 0.5 mg/kg ([1]; dose 0.5 mg/kg): 85%
- response vs control in vivo at 10 mg/kg [2, 3]: 110%
- response vs control in vivo at 10 mg/kg [2, 4]: 302%
- response vs control in vivo at 10 mg/kg [2, 5]: 249%
- response vs control in vivo at 10 mg/kg [2, 6]: 106%

Structure (SMILES): CCN1CCN(c2cc(-c3ccc(F)cc3)c3c(n2)CCC(C)C3)CC1 (centres unmarked) [Example 59]
- response vs control in vivo at 2 mg/kg [2, 3]: 106%
- response vs control in vivo at 2 mg/kg [2, 4]: 246%
- response vs control in vivo at 2 mg/kg [2, 5]: 236%
- response vs control in vivo at 2 mg/kg [2, 6]: 126%

Structure (SMILES): CCN1CCN(c2cc(-c3ccc(F)cc3)c3c(n2)CCC(C)(C)C3)CC1 [Example 66]
- inhibition in vivo at 1 mg/kg [1]: 95%
- response vs control in vivo at 2 mg/kg [2, 3]: 116%
- response vs control in vivo at 2 mg/kg [2, 4]: 311%
- response vs control in vivo at 2 mg/kg [2, 5]: 308%
- response vs control in vivo at 2 mg/kg [2, 6]: 111%

Structure (SMILES): CCN1CCN(c2cc(-c3ccc(F)cc3)c3c(n2)CC(C)(C)CC3C)CC1 (centres unmarked) [Example 68]
- response vs control in vivo at 2 mg/kg [2, 4]: 206%
- response vs control in vivo at 2 mg/kg [2, 5]: 181%

Structure (SMILES): COCCN1CCN(c2cc(-c3ccc(F)cc3)c3c(n2)CCCCCC3)CC1 [Example 82, 2-[4-(2-Methoxyethyl)-1-piperazinyl]-4-(4-fluorophenyl)-5,6,7,8,9,10-hexahydrocycloocta[b]pyridine dimaleate]
- inhibition in vivo at 1 mg/kg [1]: 100%

Structure (SMILES): CC1CN(c2cc(-c3ccc(F)cc3)c3c(n2)CCCCCC3)CC(C)N1 (centres unmarked) [Example 84, 2-(3,5-Dimethyl-1-piperazinyl)-4-(4-fluorophenyl)-5,6,7,8,9,10-hexahydrocycloocta[b]pyridine 1/2 fumarate]
- response vs control in vivo at 10 mg/kg [2, 4]: 237%
- response vs control in vivo at 10 mg/kg [2, 5]: 216%

Structure (SMILES): Fc1ccc(-c2cc(N3CCNCC3)nc3c2CCCCCC3)cc1 [Example 104, 2-(1-piperazinyl)-4-(4-fluorophenyl)-5,6,7,8,9,10-hexahydrocycloocta[b]pyridine]
- response vs control in vivo at 10 mg/kg [2, 3]: 97%
- response vs control in vivo at 10 mg/kg [2, 4]: 344%
- response vs control in vivo at 10 mg/kg [2, 5]: 247%
- response vs control in vivo at 10 mg/kg [2, 6]: 160%

Structure (SMILES): CC1CN(c2cc(-c3ccc(F)cc3)c3c(n2)CCCCCC3)CCN1C (centres unmarked) [Example 116, 2-(3,4-Dimethyl-1-piperazinyl)-4-(4-fluorophenyl)-5,6,7,8,9,10-hexahydrocycloocta[b]pyridine fumarate 1/4 hydrate]
- inhibition in vivo at 1 mg/kg [1]: 100%

Structure (SMILES): C[C@@H]1CN(c2cc(-c3ccc(F)cc3)c3c(n2)CCCCCC3)C[C@H](C)N1C [Example 117, 2-(cis-3,5-Dimethyl-4-methyl-1-piperazinyl)-4-(4-fluorophenyl)-5,6,7,8,9,10-hexahydrocycloocta[b]pyridine fumarate]
- response vs control in vivo at 10 mg/kg [2, 3]: 100%
- response vs control in vivo at 10 mg/kg [2, 4]: 242%
- response vs control in vivo at 10 mg/kg [2, 5]: 210%
- response vs control in vivo at 10 mg/kg [2, 6]: 133%

Structure (SMILES): CCCCCCN1CCN(c2cc(-c3ccc(F)cc3)c3c(n2)CCCCCC3)CC1 [Example 124]
- response vs control in vivo at 10 mg/kg [2, 3]: 107%
- response vs control in vivo at 10 mg/kg [2, 4]: 292%
- response vs control in vivo at 10 mg/kg [2, 5]: 238%
- response vs control in vivo at 10 mg/kg [2, 6]: 102%

Structure (SMILES): CCN1CCN(c2cc(-c3ccc(F)cc3F)c3c(n2)CCCCC3)CC1 [Example 131, 2-(4-ethyl-1-piperazinyl)-4-(2,4-difluorophenyl)-6,7,8,9-tetrahydro-5H-cyclohepta[b]pyridine]
- response vs control in vivo at 1 mg/kg [2, 4]: 319%
- response vs control in vivo at 1 mg/kg [2, 5]: 224%

Structure (SMILES): CCN1CCN(c2cc(-c3ccc(F)cc3F)c3c(n2)CCC3)CC1 [Example 132, 2-(4-ethyl-1-piperazinyl)-4-(2,4-difluorophenyl)-6,7-dihydro-5H-1-pyrindin]
- response vs control in vivo at 10 mg/kg [2, 4]: 333%
- response vs control in vivo at 10 mg/kg [2, 5]: 209%

Structure (SMILES): CCN1CCN(c2cc(-c3ccc(F)cc3F)c3c(n2)C2CCC3C2)CC1 (centres unmarked) [Example 135, 2-(4-ethyl-1-piperazinyl)-4-(2,4-difluorophenyl)-5,6,7,8-tetrahydro-5,8-methanoquinoline]
- inhibition in vivo at 1 mg/kg [1]: 100%

Structure (SMILES): OCCCN1CCN(c2cc(-c3ccc(F)cc3)c3c(n2)CCCCCC3)CC1 [Example 138, 2-[4-(3-hydroxypropyl)-1-piperazinyl]-4-(4-fluorophenyl)-5,6,7,8,9,10-hexahydrocycloocta[b]pyridine]
- response vs control in vivo at 2 mg/kg [2, 4]: 236%
- response vs control in vivo at 2 mg/kg [2, 5]: 173%

Structure (SMILES): CC(=O)OCCN1CCN(c2cc(-c3ccc(F)cc3)c3c(n2)CCCCCC3)CC1 [Example 139, 2-[4-(2-acetoxyethyl)-1-piperazinyl]-4-(4-fluorophenyl)-5,6,7,8,9,10-hexahydrocycloocta[b]pyridine]
- response vs control in vivo at 10 mg/kg [2, 4]: 267%
- response vs control in vivo at 10 mg/kg [2, 5]: 206%
